Laboratory results published in patent US20260306460A1, “COMPOSITION FOR REMOVING AND INHIBITING SENESCENT CELLS, AND USES THEREOF” (LIFECEUTIX CO., LTD., priority 2023, published 2026).
Like-named read-outs stand apart in the source and are kept apart here.

Tests used:
Type in all cases: in vivo, mouse
[1] = system: doxorubicin-induced aged C57BL6J mice; experiment: Hair loss area in doxorubicin-aged mice, Example 22-11, Table 40
Protocol: Eight-week-old male C57BL6J mice (KRIBB Laboratory Animal Resource Center) were acclimated to the experimental environment for one week. Afterwards, the anticancer agent doxorubicin was administered intraperitoneally at a concentration of 10 mg/kg, inducing aging for more than 10 days. The aging-induced mice were randomly assigned to experimental and control groups. LX-403 was mixed with a 10% ethanol solution of PEG400 and administered orally at a concentration of 25 mg/kg or intradermally at a concentration of 1 μM for 21 days. LX-1801 was mixed in distilled water with 4% DMSO, 30% PEG300, and 5% Tween80 and administered intradermally at a concentration of 0.4 μM daily for 21 days. LX-2001 was mixed in PBS and administered intradermally at a concentration of 2 μM daily for 21 days. LX-2002 was mixed in distilled water with 4% DMSO, 30% PEG300, and 5% Tween80 and administered intradermally at a concentration of 2 μM daily for 21 days. […] LX-2005 was mixed in distilled water with 4% DMSO, 30% PEG300, and 5% Tween80 and administered intradermally at a concentration of 90 μM daily for 21 days. LX-2007 was mixed in distilled water with 4% DMSO, 30% PEG300, and 5% Tween80 and administered intradermally at a concentration of 90 μM daily for 21 days. […] LX-3002 was mixed in distilled water with 4% DMSO, 30% PEG300, and 5% Tween80 and administered orally at a concentration of 10 mg/kg daily for 21 days. […] LX-5411 was mixed in 5% phosphate-buffered saline (PBS) and administered orally at a concentration of 10 mg/kg daily for 21 days or intradermally at a concentration of 3 μM. LX-5701 was mixed in PBS and administered orally at a concentration of 360 mg/kg daily for 21 days. LX-6807 was mixed in saline and administered intraperitoneally at a concentration of 1 mg/kg daily for 21 days. The control group received only the solution in the same volume. After the end of drug administration, the methods described in each example below were performed.
Alopecia is one of the most troubling side effects of chemotherapy, for which there is currently no treatment. Hair loss in mice induced to age by the anticancer drug was quantified using imaging software such as ImageJ (NIH) from digital photographs taken using a fixed camera position and magnification.

[2] = system: naturally aged C57BL6J mice; experiment: Frailty (open field, wire hanging, grip strength, muscle and fat tissue) in naturally aged mice, Example 21-7, Table 23; details: for Fat Mass (g): inguinal and epididymal fat, untreated aged 0.82 (±0.19); for Muscle Mass (g): quadriceps and gastrocnemius, untreated aged 0.64 (±0.06); for Grip Sterenght Test Strength (%) / Open Field Test Time in Center (%) / Wire Hanging Test Time (%): untreated aged = 100%
Protocol: 22-month-old female C57BL6J mice (KRIBB Laboratory Animal Resource Center) were acclimated to the experimental environment for one week, after which the aged mice were randomly assigned to experimental and control groups. Eight-week-old, non-aged mice served as controls. LX-403 was mixed in a 10% ethanol solution of PEG400 and administered orally at a concentration of 25 mg/kg daily for 21 days, or administered to the skin, joints, or eyes at a concentration of 1 μM. LX-1801 was mixed in distilled water with 4% DMSO, 30% PEG300, and 5% Tween80 and administered to the skin, joints, or eyes at a concentration of 0.4 μM daily for 21 days. LX-2001 was mixed in PBS and administered to the skin, joints, or eyes at a concentration of […] daily for 21 days. LX-2002 was mixed in distilled water with 4% DMSO, 30% PEG300, and 5% Tween80 and administered to the skin, joints, or eyes at a concentration of 2 μM daily for 21 days. […] LX-2005 was mixed in distilled water with 4% DMSO, 30% PEG300, and 5% Tween80 and administered to the skin, joints, or eyes at a concentration of 90 μM daily for 21 days. LX-2007 was mixed in distilled water with 4% DMSO, 30% PEG300, and 5% Tween80 and administered to the skin, joints, or eyes at a concentration of 90 μM daily for 21 days. […] LX-3002 was mixed in distilled water with 4% DMSO, 30% PEG300, and 5% Tween80 and administered orally at a concentration of 10 mg/kg daily for 21 days. […] LX-5411 was mixed in 5% PBS and administered orally at a concentration of 10 mg/kg daily for 21 days or administered to the skin, joints, or eyes at a concentration of 3 μM. LX-5701 was mixed in PBS and administered orally at a concentration of 360 mg/kg daily for 21 days. LX-6807 was mixed in saline and administered intraperitoneally at a concentration of 1 mg/kg daily for 21 days. LX-2101 or LX-2102 was mixed in PBS solution with 5% DMSO and administered intraperitoneally at a concentration of 20 mg/kg or 10 mg/kg, respectively, daily for 21 days. The control group received only the solution in the same volume. After the end of drug administration, the methods described in each example below were performed.
To analyze frailty due to aging in mice, an activity test (open field test), an endurance test (wire hanging test), and a muscle strength and grip strength test (grip strength test) were performed using the same method as in Example 7-7 of WO2023-085787 A1. The table below quantitatively represents the results of activity, endurance, muscle strength, and grip strength, which are criteria for assessing frailty, under conditions in which aging was induced and the test compound was not administered or administered. The amount of each evaluation after aging was calculated as 100% and compared with the amount of each evaluation after treatment with the drug of the present invention.

[3] = system: bleomycin-induced pulmonary fibrosis C57BL6J mice; experiment: Bleomycin pulmonary fibrosis in mice (p16, IL6, Col1a1 mRNA, alveoli size), Example 24-1, Table 47; details: for Airspace enlargement: average size of alveoli, untreated 39.8 (±0.4); for Col1a1 mRNA / IL6 mRNA / p16 mRNA: lung, daily for 21 days, untreated 100%
Protocol: Eight-week-old male C57BL6J mice (KRIBB Laboratory Animal Resource Center) were acclimated to the experimental environment for one week. They were then administered the anticancer drug bleomyxin via intratracheal inhalation at a concentration of 2.5 mg/kg, inducing aging for more than 10 days. The aging-induced mice were randomly assigned to experimental and control groups. […] LX-3002 was mixed in distilled water with 4% DMSO, 30% PEG300, 5% tween80 and administered orally at a concentration of 10 mg/kg daily for 21 days. LX-5701 was mixed in PBS and administered orally at a concentration of 360 mg/kg daily for 21 days. LX-6807 was mixed in saline and administered intraperitoneally at a concentration of 1 mg/kg daily for 21 days. The control group received only the solution in the same volume. After the end of drug administration, mice were sacrificed in the same manner as in Example 7-2 of WO2023-085787 A1, RNA was extracted from lung tissue, and qRT-PCR (quantitative real-time PCR) was performed and analyzed using the synthesized cDNA. […] The amount of mRNA after aging was calculated as 100%, and the results after treatment with the test compound were compared. Furthermore, paraffin sections were stained with hematoxylin/eosin (H/E), and the size of alveoli was measured under an optical microscope to assess the degree of lung function impairment due to pulmonary fibrosis.

[4] = doxorubicin-induced aged mice, untreated 100 (±15.4)

| Molecule | Relative area of hair loss [1, 4] | Fat Mass (g) [2] | Muscle Mass (g) [2] | Grip Sterenght Test Strength (%) [2] | Open Field Test Time in Center (%) [2] | Wire Hanging Test Time (%) [2] | Airspace enlargement [3] | Col1a1 mRNA [3] | IL6 mRNA [3] | p16 mRNA [3] | Relative area of hair loss [1] |
| --- | --- | --- | --- | --- | --- | --- | --- | --- | --- | --- | --- |
| C[C@@H]1CC[C@@]23C[C@H](O)C(=O)[C@@]2(O)[C@]1(C)[C@H](OC(=O)CCl)C[C@@H](C1=CCn2c(=O)n(-c4ccccc4)c(=O)n2C1)[C@@H]3C [LX-1801, (2S,3aS,4S,5R,7R,8S,8aS,11R)-7-(1,3-Dioxo-2-phenyl-2,3,5,8-tetrahydro-1H-[1,2,4]triazolo[1,2-a]pyridazin-6-yl)-2,3a-dihydroxy-4,8,11-trimethyl-3-oxooctahydro-1H-4,8a-propanoazulen-5-yl 2-Chloroacetate] | 78 (±5.4) % | – | – | – | – | – | – | – | – | – | – |
| C[C@H]1[C@H](C)CC[C@]2(C(=O)O)CC[C@]3(C)C(=CC[C@@H]4[C@@]5(C)CC[C@H](O)C(C)(C)[C@@H]5CC[C@]43C)[C@H]12 [LX-2001, Ursolic acid] | 80 (±6.9) % | – | – | – | – | – | – | – | – | – | – |
| Cc1cccc([C@H](C)c2cnc[nH]2)c1C [LX-6807, Dexmedetomidine] | 59 (±3.2) % | 1.08 (±0.15) g | 0.74 (±0.04) g | 128 (±6.2) % | 269 (±13.3) % | 156 (±16.4) % | 33.8 (±3.6) μm | 56 (±3.6) % | 48 (±2.4) % | 54 (±1.9) % | – |
| CC1(C)CC[C@]2(C(=O)O)CC[C@]3(C)C(=CC[C@@H]4[C@@]5(C)CC[C@H](O)C(C)(C)[C@@H]5CC[C@]43C)[C@@H]2C1 [LX-2003, Oleanolic acid] | 79 (±6.7) % | – | – | – | – | – | – | – | – | – | – |
| Tocofersolan [LX-3001] | – | 0.95 (±0.12) g | 0.70 (±0.1) g | 115 (±4.7) % | 187 (±12.9) % | 126 (±11.4) % | 36.2 (±2.2) μm | 64 (±3.9) % | 51 (±3.6) % | 65 (±3.8) % | – |
| O=C(C(C[N+](=O)[O-])=NO)N1CCN(C(c2ccc(Cl)cc2)c2ccc(Cl)cc2)CC1 [LX-403] | 76 (±5.5) % | – | – | – | – | – | – | – | – | – | – |
| CCCC\C=C/C=C/C=C\CCCCCCCC(=O)O [LX-2707, Punicic acid] | – | 0.98 (±0.20) g | 0.67 (±0.07) g | 117 (±3.6) % | 198 (±19.4) % | 135 (±13.3) % | 35.4 (±1.8) μm | 70 (±6.5) % | 38 (±4.1) % | 43 (±4.2) % | – |
| C#CC(=O)N1[C@@H](CCCC)Cc2cc(OC)ccc2[C@@H]1c1ccc(NC23CC4CC(CC(C4)C2)C3)cc1 [LX-5411] | 77 (±4.1) % | – | – | – | – | – | – | – | – | – | – |
| C[C@H]1[C@H](C)CC[C@]2(C(=O)O)CC[C@]3(C)C(=CC[C@@H]4[C@@]5(C)C[C@@H](O)[C@H](O)C(C)(C)[C@@H]5CC[C@]43C)[C@H]12 [LX-2002, Corosolic acid] | 83 (±10.4) % | – | – | – | – | – | – | – | – | – | – |
| CC1(C)CC[C@]2(NC(=O)C(C)(F)F)CC[C@]3(C)[C@H](C(=O)C=C4[C@@]5(C)C=C(C#N)C(=O)C(C)(C)[C@@H]5CC[C@]43C)[C@@H]2C1 [LX-2101, Omaveloxolone] | – | 1.15 (±0.09) g | 0.72 (±0.05) g | 121 (±4.1) % | 145 (±10.2) % | 117 (±3.8) % | – | – | – | – | 79 (±3.9) % |
| COC(=O)[C@]12CCC(C)(C)C[C@H]1[C@H]1C(=O)C=C3[C@@]4(C)C=C(C#N)C(=O)C(C)(C)[C@@H]4CC[C@@]3(C)[C@]1(C)CC2 [LX-2102, Bardoxolone methyl] | – | 0.97 (±0.16) g | 0.76 (±0.05) g | 116 (±9.2) % | 109 (±8.6) % | 120 (±7.5) % | – | – | – | – | – |
| C=C(C)[C@@H]1CC[C@]2(C(=O)O)CC[C@]3(C)[C@H](CC[C@@H]4[C@@]5(C)CC[C@H](O)C(C)(C)[C@@H]5CC[C@]43C)[C@@H]12 [LX-2005, Betulinic acid] | 82 (±4.6) % | – | – | – | – | – | – | – | – | – | – |
| CC1(C)C=C2[C@H]3CC[C@@H]4[C@@]5(C)CCC(=O)C(C)(C)[C@@H]5CC[C@@]4(C)[C@]3(C)CC[C@@]2(C(=O)O)CC1 [LX-2007, Moronic acid] | 86 (±2.9) % | – | – | – | – | – | – | – | – | – | – |
| O=C1C2CCN(CC2)C1CNC(=O)C(F)(F)F (stereo not drawn) [LX-5701] | 67 (±17.8) % | 0.88 (±0.1) g | 0.66 (±0.1) g | 119 (±3.8) % | 259 (±38.6) % | 141 (±7.3) % | 30.1 (±2.7) μm | 52 (±13.9) % | 59 (±13.2) % | 65 (±7.1) % | – |
